The target in one assay is CRBN&DDB1 protein (Homo sapiens (Human), UniProt Q96SW2). Nature of the assay: CRBN&DDB1 HTRF (TR-FRET) assay, blocking binding of biotin labeled thalidomide. As to conditions: CRBN&DDB1 protein (His Tag), 30 nM biotin labeled thalidomide. The procedure: Biochemical potency of compound was determined by using CRBN& DDB1 protein (His Tag). Compounds were tested for blocking the binding of CRBN&DDB1 protein (CRBN, aa 40-442, DDB1, 1-1140, Viva Biotech) with biotin labeled thalidomide in an assay based on the time-resolved fluorescence-resonance energy transfer (TR-FRET) methodology. The assay was carried out in 384-well low volume black plates in a reaction mixture containing CRBN& DDB1 protein, 30 nM biotin labeled thalidomide and 0-10 μM compound in buffer containing 50 mM HEPES pH7.5, 50 mM NaCl, 0.01% BSA, 1 mM DTT and 0.015% Brij-35. The protein was preincubated with compound for 60 minutes at room temperature and biotin labeled thalidomide was added to plate. After further incubation at room temperature for 60 minutes detection reagents Mab Anti-6His Eu cryptate Gold (Cisbio, Cat #61HI2KLB) and Streptavidin-XL665 (Cisbio, Cat #610SAXLG) were added to plate. Plates were sealed and incubated at room temperature for 1 hour, and the TR-FRET signals (ex337 nm, em665 nm/620 nm) were recorded on a PHERAstar FSX plate reader (BMG Labtech). The inhibition percentage of CRBN& DDB1 protein interaction with biotin labeled thalidomide in presence of increasing concentrations of compounds was calculated based on the ratio of fluorescence at 665 nm to that at 620 nm. IC50 was derived from fitting the dose-response % inhibition data to the four-parameter logistic model by Dotmatics.
Four-parameter logistic equation: Y=Bottom+(Top−Bottom)/(1+10^((LogIC50−X) *HillSlope)). While X is Log of compound concentration. Y is % inhibition at X. Bottom is the bottom of the curve effect. Top is the top of the curve effect. HillSlope is the hill slope factor.
In general terms: In TR-FRET formats the signal depends on donor and acceptor labels being close together.

Assay [1] concerns EGFR Del19/T790M/C797S (H1975-clone #28 cells). In words: EGFR degradation HTRF assay in H1975-clone #28 cells. Type of assay: cell-based. As to conditions: H1975-clone #28(Del19/T790M/C797S) cells, 16 h treatment, Table 2; for DC50: read-out: H1975 # 28 DTC DC50; for H1975 # 28 DTC Dmax: maximum percentage of degradation. The protocol: H1975-clone #28(Del19/T790M/C797S) was stably expressed in H1975 cell lines (from ATCC) by lentivirus-mediated over-expression. The EGFR over-expressed cells then underwent gene knockout, in which the EGFR targeting sgRNA was designed to only target the endogenous EGFR copies and preserve the exogenous EGFR copies. Followed by the gene knockout, the edited H1975 cells were seeded in 96 well plates at the concentration of […], cultured for about 2 weeks to allow single clones formation. The formed clones were screened by DNA sequencing and whole exon sequencing analysis for the desired edition. H1975-clone #28 was finally confirmed as homozygous Del19/T790M/C797S EGFR clone
(§1) BaF3-LTC(L858R/T790M/C797S) and BaF3-DTC(Del19/T790M/C797S) cells are treated with compounds diluted in 0.2% DMSO cell culture medium and incubate for 16 h, 37° C., 5% CO2, H1975- #28 cells are treated with compounds diluted in 0.2% DMSO cell culture medium on day 2, incubate for 16 h, 37° C., 5% CO2. the final concentration of compounds in all assay is start with 10 uM, 5-fold dilution, total 8 doses were included.
(§2) After 16 h treatment, add HTRF lysis buffer to each well; seal the plate and incubate 1 hour at room temperature on a plate shaker; Once the cells are lysed, 16 μL of cell lysate are transferred to a PE 384-well HTRF detection plate; 4 μL of pre-mixed HTRF antibodies are added to each well; Cover the plate with a plate sealer, spin 1000 rpm for 1 min, Incubate overnight at room temperature; Read on BMG PheraStar with HTRF protocol (337 nm-665 nm-620 nm).
(§3) The IC50 (DC50) value of a compound can be obtained by fitting the following equation
(§4) Y=Bottom+(TOP−Bottom)/(1+((IC50/X)^hillslope))
(§5) Wherein, X and Y are known values, and IC50, Hillslope, Top and Bottom are the parameters obtained by fitting with software. Y is the inhibition percentage (calculated from the equation), X is the concentration of the compound; IC50 is the concentration of the compound when the 50% inhibition is reached. The smaller the IC50 value is, the stronger the inhibitory ability of the compound is. Vice versa, the higher the IC50 value is, the weaker the ability the inhibitory ability of the compound is; Hillslope represents the slope of the fitted curve, generally around 1*; Bottom represents the minimum value of the curve obtained by data fitting, which is generally 0%±20%; Top represents the maximum value of the curve obtained by data fitting, which is generally 100%±20%. The experimental data were fitted by calculating and analyzing with Dotmatics data analysis software.

In assay [2] the target is EGFR L858R/T790M/C797S (BaF3-LTC cells) (Homo sapiens (Human), UniProt P00533, C797S/L858R/T790M). Nature of the assay: EGFR degradation HTRF assay in BaF3-LTC cells. Type of assay: cell-based. As to conditions: 16 h treatment; for DC50: Table 2, read-out: BaF3-LTC DC50; for Dmax: maximum percentage of degradation, Table 2, read-out: BaF3-LTC Dmax. The procedure:
as §1, §2, §3, §4, §5

Where only a bound is given, the exact number is not on record here.

CRBN&DDB1 protein, sequence (Q96SW2 40-442): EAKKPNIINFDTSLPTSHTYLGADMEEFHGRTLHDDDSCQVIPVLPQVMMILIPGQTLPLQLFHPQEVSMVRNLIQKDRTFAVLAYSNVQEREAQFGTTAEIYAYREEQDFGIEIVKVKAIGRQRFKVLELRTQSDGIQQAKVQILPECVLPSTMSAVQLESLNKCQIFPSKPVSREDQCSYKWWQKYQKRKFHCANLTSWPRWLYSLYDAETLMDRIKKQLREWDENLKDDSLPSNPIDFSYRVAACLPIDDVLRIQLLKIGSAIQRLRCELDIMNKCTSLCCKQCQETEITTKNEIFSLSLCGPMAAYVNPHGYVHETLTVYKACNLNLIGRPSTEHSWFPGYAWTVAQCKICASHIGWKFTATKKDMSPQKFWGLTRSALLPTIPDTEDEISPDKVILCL
CRBN&DDB1 protein, sequence (Q16531 whole entry partner, the tested form may be a part): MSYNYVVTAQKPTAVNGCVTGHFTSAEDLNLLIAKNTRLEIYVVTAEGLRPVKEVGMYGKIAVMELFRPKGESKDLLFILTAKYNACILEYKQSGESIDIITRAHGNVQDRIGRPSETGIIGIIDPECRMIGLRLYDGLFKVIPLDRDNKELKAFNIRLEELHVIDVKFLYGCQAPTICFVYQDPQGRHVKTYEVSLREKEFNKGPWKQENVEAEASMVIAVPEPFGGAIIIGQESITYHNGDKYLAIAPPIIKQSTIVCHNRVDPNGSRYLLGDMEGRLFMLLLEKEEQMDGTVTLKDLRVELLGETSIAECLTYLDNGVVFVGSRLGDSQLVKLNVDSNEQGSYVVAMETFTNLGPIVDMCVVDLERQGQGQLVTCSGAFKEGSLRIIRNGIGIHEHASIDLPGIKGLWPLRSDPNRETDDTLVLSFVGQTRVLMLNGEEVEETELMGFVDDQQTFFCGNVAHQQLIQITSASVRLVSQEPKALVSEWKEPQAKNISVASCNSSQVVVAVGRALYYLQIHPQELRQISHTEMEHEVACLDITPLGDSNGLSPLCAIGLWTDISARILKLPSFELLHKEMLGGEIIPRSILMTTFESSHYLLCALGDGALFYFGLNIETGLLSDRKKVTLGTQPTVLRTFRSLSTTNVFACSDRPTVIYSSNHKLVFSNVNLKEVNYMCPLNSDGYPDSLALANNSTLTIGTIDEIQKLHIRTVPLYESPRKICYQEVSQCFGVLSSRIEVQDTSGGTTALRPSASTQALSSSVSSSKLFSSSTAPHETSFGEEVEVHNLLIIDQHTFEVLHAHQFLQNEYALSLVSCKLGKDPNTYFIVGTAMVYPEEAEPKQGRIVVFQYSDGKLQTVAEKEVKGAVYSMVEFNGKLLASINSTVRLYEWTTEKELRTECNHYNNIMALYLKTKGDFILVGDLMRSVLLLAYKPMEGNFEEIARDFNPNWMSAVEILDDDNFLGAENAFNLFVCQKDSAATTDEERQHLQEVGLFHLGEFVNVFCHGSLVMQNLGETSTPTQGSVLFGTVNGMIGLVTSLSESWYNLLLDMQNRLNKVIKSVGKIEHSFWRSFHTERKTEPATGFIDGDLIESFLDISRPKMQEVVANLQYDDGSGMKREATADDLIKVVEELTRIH
EGFR L858R/T790M/C797S (BaF3-LTC cells), sequence (P00533 25-1210 T790M/C797S/L858R): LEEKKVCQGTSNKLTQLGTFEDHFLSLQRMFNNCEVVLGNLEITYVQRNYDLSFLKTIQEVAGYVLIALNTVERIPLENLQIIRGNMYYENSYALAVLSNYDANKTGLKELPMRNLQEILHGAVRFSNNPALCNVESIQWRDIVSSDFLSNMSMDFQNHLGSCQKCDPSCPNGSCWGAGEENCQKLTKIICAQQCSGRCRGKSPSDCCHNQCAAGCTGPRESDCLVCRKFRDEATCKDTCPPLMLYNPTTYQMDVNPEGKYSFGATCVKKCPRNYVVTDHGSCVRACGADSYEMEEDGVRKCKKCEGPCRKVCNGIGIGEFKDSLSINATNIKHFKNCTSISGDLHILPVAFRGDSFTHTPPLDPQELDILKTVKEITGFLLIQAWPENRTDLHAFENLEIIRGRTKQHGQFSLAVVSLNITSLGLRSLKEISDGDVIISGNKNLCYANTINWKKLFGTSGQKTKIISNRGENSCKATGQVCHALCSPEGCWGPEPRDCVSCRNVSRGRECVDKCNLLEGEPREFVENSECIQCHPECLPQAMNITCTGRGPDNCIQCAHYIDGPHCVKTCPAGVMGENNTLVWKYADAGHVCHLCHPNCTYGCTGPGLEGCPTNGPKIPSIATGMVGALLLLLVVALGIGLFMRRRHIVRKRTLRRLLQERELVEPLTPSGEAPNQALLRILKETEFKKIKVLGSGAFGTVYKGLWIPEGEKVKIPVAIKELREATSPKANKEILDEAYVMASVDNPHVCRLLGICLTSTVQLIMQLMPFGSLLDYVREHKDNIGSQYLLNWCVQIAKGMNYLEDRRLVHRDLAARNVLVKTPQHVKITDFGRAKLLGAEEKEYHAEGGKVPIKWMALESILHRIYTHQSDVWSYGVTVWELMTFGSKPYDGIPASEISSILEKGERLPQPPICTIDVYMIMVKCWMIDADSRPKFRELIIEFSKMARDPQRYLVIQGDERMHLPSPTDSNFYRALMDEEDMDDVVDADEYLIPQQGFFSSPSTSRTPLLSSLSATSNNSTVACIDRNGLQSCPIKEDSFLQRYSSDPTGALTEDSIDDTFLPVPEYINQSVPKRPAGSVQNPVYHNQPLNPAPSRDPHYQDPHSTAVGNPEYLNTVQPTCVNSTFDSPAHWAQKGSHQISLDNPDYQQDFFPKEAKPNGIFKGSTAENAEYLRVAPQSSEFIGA

The term IC50 denotes the midpoint of a concentration-inhibition curve. A high value points to lower potency. `CCO/C=C/c1cc(F)c([C@@H]2CCC(=O)NC2=O)c(F)c1` [Example 2, (S,E)-3-(4-(2-ethoxyvinyl)-2,6-difluorophenyl)piperidine-2,6-dione] returned a concentration for half-maximal inhibition (IC50) on CRBN&DDB1 protein of 406 nM.

At CRBN&DDB1 protein, `O=C1CC[C@H](c2c(F)cc(N3CC[C@@H](C(=O)O)C3)cc2F)C(=O)N1` [Example 5, (R)-1-(4-((R)-2,6-dioxopiperidin-3-yl)-3,5-difluorophenyl)pyrrolidine-3-carboxylic acid] yielded a half-maximal inhibitory concentration (IC50) of 26 nM.

Take `O=C1CC[C@@H](c2c(F)cc(N3CC[C@@H](C(=O)O)C3)cc2F)C(=O)N1` [Example 6, (R)-1-(4-((S)-2,6-dioxopiperidin-3-yl)-3,5-difluorophenyl)pyrrolidine-3-carboxylic acid]: the IC50 at CRBN&DDB1 protein was 1070 nM.

For `O=C1CC[C@H](c2c(F)cc(N3CC[C@@H](CO)C3)cc2F)C(=O)N1` [Example 7, (R)-3-(2,6-difluoro-4-((R)-3-(hydroxymethyl)pyrrolidin-1-yl)phenyl)piperidine-2,6-dione], the IC50 on CRBN&DDB1 protein came out at 22 nM.

On CRBN&DDB1 protein, `O=C1CCC(c2c(F)cc(N3CC(CO)C3)cc2F)C(=O)N1` (stereo not shown) [Example 9, 3-(2,6-difluoro-4-(3-(hydroxymethyl)azetidin-1-yl)phenyl)piperidine-2,6-dione] had an IC50 of 64 nM.

For orientation: DC50 means the concentration at which degradation of the target reaches its halfway point. The Dmax is the largest share of the target that was removed. With `CCc1ccc2c(P(C)(C)=O)c(Nc3nc(Nc4cc(CC)c(N5CCC(N6CCN(CCc7cc(F)c([C@@H]8CCC(=O)NC8=O)c(F)c7)CC6)CC5)cc4OC)ncc3Br)ccc2n1` [Example 20, (S)-3-(4-(2-(4-(1-(4-((5-bromo-4-((5-(dimethylphosphoryl)-2-ethylquinolin-6-yl)amino)pyrimidin-2-yl)amino)-2-ethyl-5-methoxyphenyl)piperidin-4-yl)piperazin-1-yl)ethyl)-2,6-difluorophenyl)piperidine-2,6-dione], in assay [1], the DC50 was > 10000 nM and the “H1975 # 28 DTC Dmax” value is reported as 19.09%. For the same molecule, in assay [2], the DC50 was 90 nM and the Dmax turned out to be 69%.

For `CCc1ccc2c(P(C)(C)=O)c(Nc3nc(Nc4cc(CC)c(N5CCC(N6CCN(CCc7cc(F)c([C@H]8CCC(=O)NC8=O)c(F)c7)CC6)CC5)cc4OC)ncc3Br)ccc2n1` [Example 21, (R)-3-(4-(2-(4-(1-(4-((5-bromo-4-((5-(dimethylphosphoryl)-2-ethylquinolin-6-yl)amino)pyrimidin-2-yl)amino)-2-ethyl-5-methoxyphenyl)piperidin-4-yl)piperazin-1-yl)ethyl)-2,6-difluorophenyl)piperidine-2,6-dione], the results for the half-maximal degradation concentration (DC50) in assay [1] and in assay [2] were 0.78 nM and 6.77 nM, respectively. Moreover, the “H1975 # 28 DTC Dmax” value in assay [1] is listed as 89.6%.

On to `CCc1cc(Nc2ncc(Br)c(Nc3ccc4nc(C)ccc4c3P(C)(C)=O)n2)c(OC)cc1N1CCC(N2CCN(C(=O)[C@@H]3CCN(c4cc(F)c([C@H]5CCC(=O)NC5=O)c(F)c4)C3)CC2)CC1` [Example 22, (R)-3-(4-((R)-3-(4-(1-(4-((5-bromo-4-((5-(dimethylphosphoryl)-2-methylquinolin-6-yl)amino)pyrimidin-2-yl)amino)-2-ethyl-5-methoxyphenyl)piperidin-4-yl)piperazine-1-carbonyl)pyrrolidin-1-yl)-2,6-difluorophenyl)piperidine-2,6-dione], for which, in assay [1], the DC50 amounted to 1.17 nM and the “H1975 # 28 DTC Dmax” value turned out to be 84.8%. The DC50 in assay [2] was 5.23 nM.

On to `CCc1ccc2c(P(C)(C)=O)c(Nc3nc(Nc4cc(CC)c(N5CCC(N6CCN(C(=O)[C@@H]7CCN(c8cc(F)c([C@H]9CCC(=O)NC9=O)c(F)c8)C7)CC6)CC5)cc4OC)ncc3Br)ccc2n1` [Example 24, (R)-3-(4-((R)-3-(4-(1-(4-((5-bromo-4-((5-(dimethylphosphoryl)-2-ethylquinolin-6-yl)amino)pyrimidin-2-yl)amino)-2-ethyl-5-methoxyphenyl)piperidin-4-yl)piperazine-1-carbonyl)pyrrolidin-1-yl)-2,6-difluorophenyl)piperidine-2,6-dione], for which, in assay [1], the DC50 was determined as 1.37 nM and the “H1975 # 28 DTC Dmax” value was found to be 82.72%. Also, the DC50 in assay [2] came to 8.99 nM.

For the molecule `CCc1ccc2c(P(C)(C)=O)c(Nc3nc(Nc4cc(CC)c(N5CCC(N6CCN(C(=O)[C@@H]7CCN(c8cc(F)c([C@@H]9CCC(=O)NC9=O)c(F)c8)C7)CC6)CC5)cc4OC)ncc3Br)ccc2n1` [Example 25, (S)-3-(4-((R)-3-(4-(1-(4-((5-bromo-4-((5-(dimethylphosphoryl)-2-ethylquinolin-6-yl)amino)pyrimidin-2-yl)amino)-2-ethyl-5-methoxyphenyl)piperidin-4-yl)piperazine-1-carbonyl)pyrrolidin-1-yl)-2,6-difluorophenyl)piperidine-2,6-dione], in assay [1], the DC50 is > 10000 nM and the “H1975 # 28 DTC Dmax” value is on record as −8.4%. Also, in assay [2], the DC50 was 360 nM and the maximal degradation (Dmax) was 57.2%.

In the case of `CCc1cc(Nc2ncc(Br)c(Nc3ccc4nc(C)ccc4c3P(C)(C)=O)n2)c(OC2CC2)cc1N1CCC(N2CCN(CCc3cc(F)c([C@H]4CCC(=O)NC4=O)c(F)c3)CC2)CC1` [Example 26, (R)-3-(4-(2-(4-(1-(4-((5-bromo-4-((5-(dimethylphosphoryl)-2-methylquinolin-6-yl)amino)pyrimidin-2-yl)amino)-5-cyclopropoxy-2-ethylphenyl)piperidin-4-yl)piperazin-1-yl)ethyl)-2,6-difluorophenyl)piperidine-2,6-dione], in assay [1], the DC50 worked out at 0.851 nM and the “H1975 # 28 DTC Dmax” value was 86.08%.

For the molecule `CCc1cc(Nc2ncc(Br)c(Nc3ccc4nc(C)ccc4c3P(C)(C)=O)n2)c(OC)cc1N1CCC(N2CCN(C(=O)[C@@H]3CCN(c4ccc([C@H]5CCC(=O)NC5=O)cc4)C3)CC2)CC1` [Example 28, (R)-3-(4-((R)-3-(4-(1-(4-((5-bromo-4-((5-(dimethylphosphoryl)-2-methylquinolin-6-yl)amino)pyrimidin-2-yl)amino)-2-ethyl-5-methoxyphenyl)piperidin-4-yl)piperazine-1-carbonyl)pyrrolidin-1-yl)phenyl)piperidine-2,6-dione], in assay [1], the DC50 was found to be 0.595 nM and the “H1975 # 28 DTC Dmax” value is on record as 62.25%. For the same molecule, in assay [2], the DC50 came out at 7.8 nM.

As to `CCc1cc(Nc2ncc(Br)c(Nc3ccc4nc(C)ccc4c3P(C)(C)=O)n2)c(OC)cc1N1CCC(N2CCN(C(=O)[C@@H]3CCN(c4ccc([C@@H]5CCC(=O)NC5=O)cc4)C3)CC2)CC1` [Example 29, (S)-3-(4-((R)-3-(4-(1-(4-((5-bromo-4-((5-(dimethylphosphoryl)-2-methylquinolin-6-yl)amino)pyrimidin-2-yl)amino)-2-ethyl-5-methoxyphenyl)piperidin-4-yl)piperazine-1-carbonyl)pyrrolidin-1-yl)phenyl)piperidine-2,6-dione], in assay [1], the 50% degradation concentration (DC50) was > 10000 nM and the “H1975 # 28 DTC Dmax” value is reported as −4.12%. Moreover, in assay [2], the DC50 came out at 85.4 nM and the Dmax worked out at 77.1%.

The values are drawn from patent US20240207267A1, “(R)-Glutarimide CRBN Ligands and Methods of Use” (BeiGene Switzerland GmbH, priority 2021, published 2024).
